Experimental findings from patent US12030892B2, “CRBN modulators” (DANA-FARBER CANCER INSTITUTE, INC., priority 2018, dated 2024) are described below.

One may read the IC50 as the midpoint of a concentration-inhibition curve. Lower therefore signals greater potency. As usually defined, the Ki is the equilibrium dissociation constant of an inhibitor or competing ligand from its target. Low values mean a stronger hold on the target, high ones a looser hold on the target.

One assay has as its system BRD4. The assay is described as follows: Cellular degradation assay, eGFP-BRD4BD1/BRD4BD2 mCherry reporters in Flip-In 293 cells. In kind it is cell-based. To be noted: BRD4BD1 and BRD4BD2 reporters, 5 h; compound 2 via BD1 and BD2, compound 1 via BD1. As for the experimental part: (§1) IKZF1 (construct IKZF1^Δ1-82/Δ197-238/Δ256-519) BRD2BD1, BRD2BD2, BRD3BD1, BRD3BD2, BRD4BD1, and BRD4BD2 were subcloned into mammalian pcDNA5/FRT Vector (Ampicillin and Hygromycin B resistant) modified to contain MCS-eGFP-P2A-mCherry. Stable cell lines expressing eGFP-protein fusion and mCherry reporter were generated using Flip-In 293 system. Plasmid (0.3 μg) and pOG44 (4.7 μg) DNA were preincubated in 100 μL of Opti-MEM I (Gibco™ Life Technologies™) media containing 0.05 mg/ml Lipofectamine 2000 (Invitrogen™) for 20 min and added to Flip-In 293 cells containing 1.9 ml of DMEM media (Gibco™, Life Technologies™) per well in a 6-well plate format (Falcon®, 353046). […] Titrated compounds were incubated with cells for 5 h following trypsinisation and resuspension in DMEM media, transferred into 96-well plates (353910, Falcon®) and analyzed by flow cytometer (Guava© easyCyte HT, Millipore™) Signal from 5000 cells per well was acquired in singlicate or duplicate and the eGFP and mCherry florescence monitored. Data was analyzed using FlowJo® (FlowJo®, LCC). Forward and side scatter outliers, frequently associated with cell debris, were removed leaving >90% of total cells, followed by removal of eGFP and mCherry signal outliers, leaving 88-90% of total cells creating the set used for quantification. […]

In the next assay the test system is BRD2. The assay can be described thus: Cellular degradation assay, eGFP-BRD2BD1/BRD2BD2 mCherry reporters in Flip-In 293 cells. In kind it is cell-based. As to conditions: BRD2BD1 and BRD2BD2 reporters, 5 h; compound 2 active via BRD2BD2. As for the experimental part: as §1
Assay [1] deals with bromodomain proteins BRD2, 3 and 4. The assay is described as follows: Change of cellular protein abundance (TMT quantitative proteomics) in Kelly cells. As to conditions: 1 μM, 6 hours, compared to DMSO control. Type of assay: cell-based, human. As for the experimental part: Kelly cells were treated with DMSO control (biological triplicates) or 1 μM of inventive compound 1 or compound 2 for 6 hours (biological singlicate). Lysis buffer (8 M Urea, 50 mM NaCl, 50 mM 4-(2hydroxyethyl)-1-piperazineethanesulfonic acid (EPPS) pH 8.5, Protease and Phosphatase inhibitors from Roche) was added to the cell pellets and homogenized by 20 passes through a 21 gauge (1.25 in. long) needle to achieve a cell lysate with a protein concentration between 1-4 mg mL^−1. A Micro BCA™ assay (Pierce™) was used to determine the final protein concentration in the cell lysate. 200 μg of protein for each sample were reduced and alkylated as previously described.
Proteins were precipitated using methanol/chloroform/water (4:1:3). In brief, four volumes of methanol were added to the cell lysate, followed by one volume of chloroform, and finally three volumes of water. The mixture was vortexed and centrifuged to separate the chloroform phase from the aqueous phase. The precipitated protein was washed with three volumes of methanol, centrifuged and the resulting washed precipitated protein was allowed to air dry. Precipitated protein was resuspended in 4 M Urea, 50 mM 4-(2-hydroxyethyl)-1-piperazineethanesulfonic acid (HEPES) pH 7.4, followed by dilution to 1 M urea with the addition of 200 mM EPPS, pH 8. Proteins were first digested with LysC (1:50; enzyme:protein) for 12 hours at room temperature. The LysC digestion was diluted to 0.5 M Urea with 200 mM EPPS pH 8 followed by digestion with trypsin (1:50; enzyme:protein) for 6 hours at 37° C. Tandem mass tag (TMT) reagents (Thermo Fisher Scientific) were dissolved in anhydrous acetonitrile (ACN) according to manufacturer's instructions. Anhydrous ACN was added to each peptide sample to a final concentration of 30% v/v, and labeling was induced with the addition of TMT reagent to each sample at a ratio of 1:4 peptide:TMT label. The 10-plex labeling reactions were performed for 1.5 hours at room temperature and the reaction quenched by the addition of hydroxylamine to a final concentration of 0.3% for 15 minutes at room temperature. The sample channels were combined at a 1:1:1:1:1:1:1:1:1:1 ratio, desalted using C18 solid phase extraction cartridges (Waters) and analyzed by LC-MS for channel ratio comparison. Samples were then combined using the adjusted volumes determined in the channel ratio analysis and dried down in a speed vacuum. The combined sample was then resuspended in 1% formic acid, and acidified (pH 2-3) before being subjected to desalting with C18 SPE (Sep-Pak®, Waters). […]

Another assay concerns BRD3. The assay can be described thus: Cellular degradation assay, eGFP-BRD3BD1/BRD3BD2 mCherry reporters in Flip-In 293 cells. Type of assay: cell-based. To be noted: BRD3BD1 and BRD3BD2 reporters, 5 h; both compounds active via BD1 and BD2. Here is the method:
as §1

The next assay deals with MM1.S cells. The assay is described as follows: MM1.S cell proliferation. In kind it is cell-based. As to conditions: Homo sapiens.
The target of the next assay is DDB1ΔB-CRBN (Homo sapiens (Human), UniProt Q96SW2). The assay is described as follows: Atto565-Lenalidomide FP displacement assay (CRBN binding). To be noted: for CRBN binding (in words), IC50 comparable to lenalidomide: FP displacement assay, FIG. 3A-3D; for IC50: FP displacement of 10 nM Atto565-Lenalidomide, 100 nM DDB1ΔB-CRBN, n=3; for Ki: FP displacement of Atto565-Lenalidomide. Here is the method:
Compounds in Atto565-Lenalidomide displacement assay were dispensed in a 384-well microplate (Corning, 4514) using D300e Digital Dispenser (HP) normalized to 1% DMSO into 10 nM Atto565-Leanlidomide, 100 nM DDB1ΔB-CRBN, 50 mM Tris pH 7.5, 200 mM NaCl, 0.1% Pluronic® F-68 solution (Sigma). Compound titrations were incubated for 60 min at RT. The change in fluorescence polarization was monitored using a PHERAstar® FS microplate reader (BMG Labtech) for 1 h in 120 s cycles. Data from three independent replicates (n=3) was used to estimate IC50 values using variable slope equation in GraphPad Prism 7.

A further assay addresses IKZF1 (Homo sapiens (Human), UniProt Q13422+Q96SW2, DEL197-238/DEL256-519). The assay can be described thus: Cellular degradation assay, eGFP-IKZF1/mCherry reporter in Flip-In 293 cells. Type of assay: cell-based. To be noted: 5 h incubation, eGFP/mCherry relative abundance, FIG. 1A-1C. As for the experimental part:
Following 2-3 passage cycle FACS (FACSAria™ II, BD) was used to enrich for cells expressing eGFP and mCherry. […] Data was analyzed using FlowJo® (FlowJo®, LCC). […] The eGFP protein abundance relative to mCherry was then quantified as a ten-fold amplified ratio for each individual cell using the formula: 10×eGFP/mCherry. The median of the ratio was then calculated per set, normalized to the median of the DMSO ratio, and is denoted as relative abundance.

DDB1ΔB-CRBN, sequence (Q96SW2 whole entry, stated change not applied): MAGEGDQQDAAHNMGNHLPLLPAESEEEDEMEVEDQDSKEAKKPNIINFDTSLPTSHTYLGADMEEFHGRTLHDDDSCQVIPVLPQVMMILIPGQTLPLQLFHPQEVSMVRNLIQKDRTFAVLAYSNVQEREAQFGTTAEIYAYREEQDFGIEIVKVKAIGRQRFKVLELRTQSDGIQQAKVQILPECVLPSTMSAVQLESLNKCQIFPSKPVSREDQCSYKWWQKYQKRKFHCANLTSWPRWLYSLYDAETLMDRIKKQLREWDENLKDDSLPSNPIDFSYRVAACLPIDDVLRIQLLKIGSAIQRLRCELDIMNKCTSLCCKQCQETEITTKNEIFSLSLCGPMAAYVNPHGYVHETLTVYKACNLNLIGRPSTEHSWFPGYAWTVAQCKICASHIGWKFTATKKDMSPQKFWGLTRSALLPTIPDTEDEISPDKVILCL

In the case of `COC(=O)C[C@@H]1N=C(c2ccc(Cl)cc2)c2c(sc(C(=O)NCCCCCOc3cc4c5c(cccc5c3)C(=O)N(C3CCC(=O)NC3=O)C4=O)c2C)-n2c(C)nnc21` (stereo partly drawn) [Compound 1, methyl 2-((6S)-4-(4-chlorophenyl)-2-((5-((2-(2,6-dioxopiperidin-3-yl)-1,3-dioxo-2,3-dihydro-1H-benzo[de]isoquinolin-5-yl)oxy)pentyl)carbamoyl)-3,9-dimethyl-6H-thieno[3,2-f][1,2,4]triazolo[4,3-a][1,4]diazepin-6-yl)acetate], in the assay with BRD4, the “degradation activity against BRD4 (in words)” value was “active”. In addition, the “degradation activity against BRD2 (in words)” value in the assay on BRD2 was “inactive”. Besides, in assay [1], the “change in relative abundance of endogenous bromodomain proteins (in words)” value is “downregulation of bromodomain proteins BRD4” and the “degradation of common IMiD-dependent off-targets (in words)” value is on record as “did not induce degradation”. The “degradation activity against BRD3 (in words)” value with BRD3 is “active”.

Regarding `Cc1sc2c(c1C)C(c1ccc(Cl)cc1)=N[C@@H](CC(=O)NCCCCCCCCNC(=O)COc1cc3c4c(cccc4c1)C(=O)N(C1CCC(=O)NC1=O)C3=O)c1nnc(C)n1-2` (stereo partly drawn) [Compound 2, 2-((S)-4-(4-chlorophenyl)-2,3,9-trimethyl-6H-thieno[3,2-f][1,2,4]triazolo [4,3-a][1,4]diazepin-6-yl)-N-(8-(2-(2-(2,6-dioxopiperidin-3-yl)-1,3-dioxo-2,3-dihydro-1H-benzo[de]isoquinolin-5-yloxy)acetamido)octyl)acetamide], the “degradation activity against BRD4 (in words)” value in the assay on BRD4 is given as “active”. In the assay with BRD2, the “degradation activity against BRD2 (in words)” value is given as “active”. For the same compound, in assay [1], the “change in relative abundance of endogenous bromodomain proteins (in words)” value was “downregulation of bromodomain proteins BRD2, 3 and 4”; the “degradation of common IMiD-dependent off-targets (in words)” value is listed as “did not induce degradation”. The “degradation activity against BRD3 (in words)” value in the assay with BRD3 is listed as “active”.

In the case of `O=C1CCC(N2C(=O)c3cccc4cccc(c34)C2=O)C(=O)N1` (centres unmarked) [Compound 9, 2-(2,6-dioxopiperidin-3-yl)-1H-benzo[de]isoquinoline-1,3(2H)-dione], the IC50 in the assay with MM1.S cells was approximately 21.5 µM. On DDB1ΔB-CRBN, the “CRBN binding (in words), IC50 comparable to lenalidomide” value (from here on “CRBN binding (in words)”) is “potent binders of CRBN”; the IC50 was 2.6 µM; the Ki stood at 0.7 µM. Moreover, the “activity against the target IKZF1 (degradation, in words)” value (from here on “activity against the target IKZF1”) at IKZF1 was “inactive”.

As for `O=C1CCC(N2C(=O)c3cccc4cc(O)cc(c34)C2=O)C(=O)N1` (centres unmarked) [Compound 10, 2-(2,6-dioxopiperidin-3-yl)-5-hydroxy-1H-benzo[de]isoquinoline-1,3(2H)-dione], on DDB1ΔB-CRBN, the “CRBN binding (in words)” value is listed as “potent binders of CRBN”; the IC50 was 3.5 µM; the Ki stood at 0.98 µM. Besides, the “activity against the target IKZF1” value at IKZF1 was “inactive”.

`Nc1cc2c3c(cccc3c1)C(=O)N(C1CCC(=O)NC1=O)C2=O` (centres unmarked) [Compound 11, 5-amino-2-(2,6-dioxopiperidin-3-yl)-1H-benzo[de]isoquinoline-1,3(2H)-dione]: at DDB1ΔB-CRBN, the “CRBN binding (in words)” value is recorded as “potent binders of CRBN”; the IC50 came out at 11.4 µM; the Ki was found to be 3.2 µM. In addition, the “activity against the target IKZF1” value on IKZF1 is “inactive”.
